Laboratory results: the NIST ThermoML archive (doi:10.1021/je060107n)

Experiment: mn = molality of the nth substance listed, in mol/kg
Conditions: 101 kPa, Liquid; for viscosity: Capillary tube (Ostwald / Ubbelohde) method; for speed of sound: Linear variable-path acoustic interferometer

O=[N+]([O-])[O-].O=[N+]([O-])[O-].[Mg+2] [magnesium nitrate] + O
Conditions	speed of sound, 273.15 K [m/s]	speed of sound, 278.15 K [m/s]	speed of sound, 283.15 K [m/s]	speed of sound, 288.15 K [m/s]	speed of sound, 293.15 K [m/s]	viscosity, 273.15 K [mPa·s]	viscosity, 278.15 K [mPa·s]	viscosity, 283.15 K [mPa·s]	viscosity, 288.15 K [mPa·s]	viscosity, 293.15 K [mPa·s]
m1 = 0.0145	1410.5	1434.8	1449.2	1471.7	1484.3	1.852	1.556	1.339	1.164	1.021
m1 = 0.0528	1415.6	1438.7	1458.5	1477.1	1486.7	1.874	1.58	1.357	1.18	1.038
m1 = 0.2491	1430.4	1451.6	1470.7	1487.6	1501.9	1.958	1.654	1.429	1.244	1.092
m1 = 0.3405	1443	1456.8	1475.6	1491.5	1507	–	–	–	–	–
m1 = 0.5931	–	–	–	–	–	2.122	1.805	1.564	1.367	1.209
m1 = 0.6173	1469.3	1486.9	1503.7	1517.8	1530.1	–	–	–	–	–
m1 = 0.896	1498.6	1514.8	1529	1541.2	1553.1	–	–	–	–	–
m1 = 0.9898	1510.3	1524.8	1538.8	1550.4	1561.5	2.391	2.047	1.775	1.554	1.378
m1 = 1.262	1538	1551.3	1563.1	1573.8	1582.5	2.659	2.268	1.971	1.727	1.53
m1 = 1.525	1566.3	1577.1	1587.6	1596.3	1604.4	–	–	–	–	–
m1 = 1.827	1600.5	1610.1	1617.9	1625.4	1631.9	3.232	2.765	2.4	2.098	1.859
m1 = 2.131	1632	1639.7	1645.2	1650.6	–	3.587	3.062	2.663	2.33	2.064
m1 = 2.493	1664.6	1670.1	1675.2	1677.8	–	–	–	–	–	–
m1 = 2.584	–	–	–	–	–	4.348	3.696	3.207	2.821	2.471
m1 = 2.793	1693.2	1696.9	1700.3	1703.5	–	–	–	–	–	–
m1 = 3.096	–	–	–	–	–	5.355	4.538	3.946	3.408	3.002
m1 = 3.118	1721.2	1723.7	1725.7	1727.3	–	–	–	–	–	–
m1 = 3.17	1730.6	1733	1734.2	1735.3	–	–	–	–	–	–
m1 = 3.329	–	–	–	–	–	5.964	5.056	4.336	3.754	3.308
m1 = 3.501	1752.4	1753.7	1754.9	1755.4	–	–	–	–	–	–
m1 = 3.704	–	–	–	–	–	6.966	5.857	5.02	4.345	3.807
m1 = 3.757	1771.9	1772.4	1771.9	1771.3	–	–	–	–	–	–
m1 = 4.039	–	–	–	–	–	8.21	6.897	5.864	5.051	4.432
m1 = 4.051	1791.3	1791.4	1790.4	1789.6	–	–	–	–	–	–
m1 = 4.285	1808.5	1807.3	1806.3	1804.5	–	–	–	–	–	–
m1 = 4.403	1820.2	1815.4	1813.5	1810.8	–	–	–	–	–	–
m1 = 4.728	–	–	–	–	–	11.85	9.74	8.233	7.067	6.098
m1 = 4.883	–	–	1847.2	1842.3	–	–	–	–	–	–
m1 = 4.907	–	–	–	–	–	–	–	–	7.798	6.799
